Measurements reported in US4788069A (The Coca-Cola Company, priority 1987, dated 1988).
Residues, ends and D or L forms follow the SMILES beside them.

Assays:
[1] = Sweetness relative to sucrose, compounds tasted in aqueous solution; conditions: for Sweetness (x sucrose w/w): Table I, diastereomeric mixtures of L-aspartyl-3-(bicycloalkyl) D,L-alanine methyl esters
Procedure: The 2R-endo- and 2R-exo-fenchyl esters described by Fujino, cited above, have sweetness of high intensity.
In Table I, the reported sweetness is measured for diastereomeric mixtures. The sweetness of each optically pure compound according to the invention will differ from the sweetness of the mixture.
The sweetness values of each compound shown in Table I correspond to a mixture of optical isomers, whose maximum theoretical number of isomers is listed. In order to evaluate the sweetness of different isomeric forms, four pairs of optical isomers of one of the novel compounds were synthesized. Each pair differed from the others only in the stereochemistry of the bicyclic camphor ring.

[2] = cited from earlier work; for times sweeter than sucrose: prior art value, weight to weight stated for formula 1

(alpha-carboxy) glycyl-3-norbornylalanine methyl ester
sweetness (in words) ([1]; formula 4 tasted in aqueous solution): intensely sweet

CC12CCC(C1)C(C)(C)C2OC(=O)C(NC(=O)C(N)CC(=O)O)c1ccccc1 (stereo not drawn) [2R, exo-fenchyl ester]
sweetness intensity (in words) ([2]; prior art fenchyl esters): high sweetness intensities

COC(=O)C(CC1CC2CCC1C2)NC(=O)C(N)CC(=O)O [(R,S)exo norbornyl]
Sweetness (x sucrose w/w) [1]: 200 x sucrose w/w

COC(=O)C(NC(=O)[C@@H](N)CC(=O)O)C(=O)OC1C2(C)CCC(C2)C1(C)C (stereo partly drawn) [L-aspartyl-2-amino malonyl methyl fenchyl diester]
times sweeter than sucrose [2]: 20,000 times sweeter than sucrose

COC(=O)C(CC1CC2CCC1C2)NC(=O)[C@@H](N)CC(=O)O (stereo partly drawn) [(R,S)endo norbornyl, L-Aspartyl-D,L-(endo-R,S-norbornyl)-3-alanine methyl ester]
Sweetness (x sucrose w/w) [1]: 290 x sucrose w/w

COC(=O)[C@H](Cc1ccccc1)NC(=O)[C@@H](N)CC(=O)O [L-aspartyl-L-phenylalanine methyl ester] (H-Asp-Phe-OMe)
times sweeter than sucrose [2]: about 180 times sweeter than sucrose

COC(=O)C(CC1CC2CCC1C2)NC(=O)[C@@H](N)CC(=O)O (stereo partly shown) [norbornyl]
Sweetness (x sucrose w/w) [1]: 225 x sucrose w/w
